Columns and labels:
[1] = test system: imMKCL; test: HDAC6 inhibitor addition in shaking flask culture: number of platelets; assay type: cell-based, human; settings: for number of platelets produced: added in a concentration of 100 nM or more to a medium
Method: After turning genes (c-MYC, BMI1, and BCL-XL) off, 1×10^5 cells/ml of imMKCL was seeded in a flask to carry out shaking flask culture using a platelet producing medium. The culture was carried out under the shaking conditions of 100 rpm, 37° C., and 5% CO2. To the platelet producing medium, BML-281 1 nM, 10 nM, or 100 nM, or Nexturastat A 20 nM was added as an HDAC6 inhibitor at the time of starting the culture. […] The number of platelets was measured on Day 6 after addition of these HDAC6 inhibitors.
(§1) After turning genes (c-MYC, BMI1, and BCL-XL) off, 1×10^5 cells/ml of imMKCL was seeded in a flask to carry out shaking flask culture using a platelet producing medium under a shaking condition of 100 rpm. Further, after turning genes (c-MYC, BMI1, and BCL-XL) off, 1×10^5 cells/ml of imMKCL was seeded in a culture dish to carry out static culture. For both shaking culture and static culture, BML-281 100 nM, or Nexturastat A 500 nM, 1 μM, or 2 μM was added at the time of starting the cultures. The number of platelets was measured on Day 6 from addition of these HDAC6 inhibitors. Additionally, Annexin V positive ratios of the obtained platelets were measured.
(§2) Subsequently, in order to examine in more detail which process in megakaryocyte maturation is affected by the HDAC6 inhibitor, the timing of adding Nexturastat A 2 μM during the flask culture was changed to Day 3, Day 4, and Day 5 from the start of the culture after the gene off and the effect on the amount of platelets to be produced was studied. Culture conditions other than the timing of adding HDAC6 inhibitors were the same as those in the experiment referring to FIGS. 21 to 24. […] In FIG. 24, panel (c), PPF was recognized at Day 5 in static culture. In view of this, the effect available at the time of shedding platelets (presumed mechanism) seems to be about 40%.

[2] = target: T1, HDAC6 (Homo sapiens, UniProt Q9UBN7); settings: cited from earlier work
T1 sequence (Q9UBN7 1-1215): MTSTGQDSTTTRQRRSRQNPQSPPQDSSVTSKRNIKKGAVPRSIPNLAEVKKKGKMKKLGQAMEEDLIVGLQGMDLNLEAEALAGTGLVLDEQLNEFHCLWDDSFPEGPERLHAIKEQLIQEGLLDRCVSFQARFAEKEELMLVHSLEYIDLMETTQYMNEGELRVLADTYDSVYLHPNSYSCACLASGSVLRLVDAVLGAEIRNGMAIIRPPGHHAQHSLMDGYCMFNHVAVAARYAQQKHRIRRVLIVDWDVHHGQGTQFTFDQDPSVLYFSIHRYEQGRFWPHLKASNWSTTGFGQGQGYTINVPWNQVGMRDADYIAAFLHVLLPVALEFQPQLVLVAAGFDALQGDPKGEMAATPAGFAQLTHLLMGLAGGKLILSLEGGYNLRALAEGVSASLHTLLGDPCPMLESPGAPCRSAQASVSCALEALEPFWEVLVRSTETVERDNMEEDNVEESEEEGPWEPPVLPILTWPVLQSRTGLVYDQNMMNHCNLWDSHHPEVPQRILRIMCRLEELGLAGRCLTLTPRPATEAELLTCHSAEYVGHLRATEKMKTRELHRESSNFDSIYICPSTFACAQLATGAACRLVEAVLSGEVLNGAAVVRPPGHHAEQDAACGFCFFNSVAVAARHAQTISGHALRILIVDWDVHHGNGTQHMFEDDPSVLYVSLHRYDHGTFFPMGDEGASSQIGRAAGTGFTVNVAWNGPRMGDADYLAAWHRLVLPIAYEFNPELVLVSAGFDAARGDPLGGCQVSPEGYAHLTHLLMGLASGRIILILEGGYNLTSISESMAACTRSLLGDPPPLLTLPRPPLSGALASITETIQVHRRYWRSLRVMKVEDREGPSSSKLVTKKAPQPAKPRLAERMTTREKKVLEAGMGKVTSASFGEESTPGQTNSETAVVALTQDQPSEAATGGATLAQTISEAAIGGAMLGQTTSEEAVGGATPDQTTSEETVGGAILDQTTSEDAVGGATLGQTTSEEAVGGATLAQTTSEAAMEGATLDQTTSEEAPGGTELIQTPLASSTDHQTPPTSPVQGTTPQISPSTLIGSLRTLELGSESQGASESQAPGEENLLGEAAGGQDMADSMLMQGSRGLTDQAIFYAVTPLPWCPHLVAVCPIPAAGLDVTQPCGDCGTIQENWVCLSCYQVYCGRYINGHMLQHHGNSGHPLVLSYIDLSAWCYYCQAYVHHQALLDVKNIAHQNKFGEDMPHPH

[3] = test system: imMKCL; test: HDAC6 inhibitor addition in static culture: cell morphology by microscope; assay type: cell-based, human; settings: for degree of hypertrophy: versus DMSO group; for cell morphology (apoptosis, hypertrophy): Day 3 from gene off; for PPF associated with megakaryocyte maturation: Day 5 from gene off
Method: To confirm if apoptosis was caused due to the drug addition, cell morphology was observed when dimethyl sulfoxide (DMSO) was used as a solvent control of the drug or an HDAC6 inhibitor was added at the time of starting the culture in the platelet producing medium in a static culture under the same conditions as above. […] In the photograph, cell hypertrophy associated with megakaryocyte maturation is observed. […] PPF associated with megakaryocyte maturation is recognized. FIG. 24, panels (e) and (f) show cell morphology on Day 5 from the gene off static culture to which BML-281 100 nM was added and to which Nexturastat A 2 μM was added, respectively. […] Additionally, when an HDAC6 inhibitor was added, the degree of megakaryocyte maturation is rather hindered but proceeds to hypertrophy. Based on the above findings, HDAC6, seems to have role in the proplatelet formation.

[4] = test system: imMKCL; test: HDAC6 inhibitor addition in static culture (Dish): number of platelets; assay type: cell-based, human
Method: as §1, §2

## CC(C)(C)OC(=O)Nc1ccc(-c2cc(C(=O)NCCCCCCC(=O)NO)no2)cc1 [BML-281, N-Hydroxy-7-[5-(4-tertbutoxycarbonylaminophenyl)-3-isoxazolecarboxamido]heptanamide]
[1]
  number of platelets produced: considerably suppress the number of platelets produced
[1]; shaking flask culture, 100 nM added at start of culture
  platelet production (number of platelets on Day 6): notable reduction in the platelet production
[2]
  known HDAC inhibition: inhibit HDAC6, 1, 2, 7, 8, and 10
[3]; Day 3, 100 nM
  degree of hypertrophy: slightly lower than the group containing DMSO
[3]; 100 nM
  cell morphology (apoptosis, hypertrophy): Apoptosis is not recognized but cell hypertrophy is recognized
  PPF associated with megakaryocyte maturation: not recognized

## CCCCN(Cc1ccc(C(=O)NO)cc1)C(=O)Nc1ccccc1 [Nexturastat A, 4-[[Butyl[(phenylamino)carbonyl]amino]methyl]-N-hydroxybenzamide]
[1]
  number of platelets produced: considerably suppress the number of platelets produced
[1]; shaking flask culture, 500 nM, 1 μM, or 2 μM added at start
  number of platelets produced on Day 6, concentration dependence: decreases in an inhibitor concentration-dependent manner
[1]; shaking flask culture, 2 μM added
  platelet production (number of platelets on Day 6): notable reduction in the platelet production
[1]; shaking flask culture, 2 μM added on Day 0 or Days 3 and 4 after gene off
  platelet production: notable reduction in the platelet production
[1]; shaking flask culture, 2 μM added on Day 5 after gene off
  platelet production: production equivalent to that in non-addition group
[2]
  known HDAC inhibition: specifically inhibit HDAC6
[3]; Day 3, 2 μM
  degree of hypertrophy: slightly lower than the group containing DMSO
[3]; 2 μM
  cell morphology (apoptosis, hypertrophy): Apoptosis was not recognized but cell hypertrophy was observed
  PPF associated with megakaryocyte maturation: not recognized
[4]; static culture (Dish), 2 μM added on Day 5
  reduction of number of platelets produced: about 40%
[4]; static culture, 500 nM, 1 μM, or 2 μM added at start
  number of platelets produced on Day 6, concentration dependence: decreases in an inhibitor concentration-dependent manner

— US11952587B2, “Method for producing platelets” (KYOTO UNIVERSITY, priority 2017, dated 2024)
